The record followed here is patent US20130252935A1, “Monobactams” (PFIZER INC., priority 2010, published 2013).

≈ marks a conversion by molar mass, not a printed value.

Common to all, as to type: cell-based
In experiment [1] the test system is Pseudomonas aeruginosa UC-12120. As to the kind of experiment: minimum inhibitory concentration (MIC) testing according to CLSI guidelines, Pseudomonas aeruginosa. Conditions: UC-12120, wild-type, labeled as 1091-05, overnight incubation, lower of duplicate values; for MIC: Pseudomonas aeruginosa, UC12120, read-out: AB-MBT: Pseudomonas aeruginosa 1091-05: MIC (MstRcn). The method, boiled down:
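Broth dilution MIC per CLSI guidelines against wild-type P. aeruginosa UC-12120 (1091-05), using 2-fold drug dilutions and overnight incubation with visual reading of lowest growth-inhibiting concentration. Tested in duplicate; lower value reported when within 2-fold, with control organisms and reference compounds for quality control.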

For experiment [2], the system named is Acinetobacter baumannii/haemolyticus AB-3167. Nature of the experiment: minimum inhibitory concentration (MIC) testing according to CLSI guidelines, Acinetobacter. Conditions: multidrug-resistant clinical isolate AB-3167, overnight incubation, lower of duplicate values; for MIC: Acinetobacter baumannii, read-out: AB-MBT: Acinetobacter baumanii AB-3167: MIC (MstRcnt). A digest of the protocol:
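Broth dilution MIC per CLSI M7-A8/M100-S20 against multidrug-resistant clinical isolate AB-3167, using 2-fold drug dilutions and overnight incubation; MIC is the lowest concentration without visible growth. Duplicates within 2-fold reported as the lower value, with control strains and reference compounds in range.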

Experiment [3] concerns Klebsiella pneumoniae 1000-02. As to the kind of experiment: minimum inhibitory concentration (MIC) testing according to CLSI guidelines, Klebsiella pneumoniae. Conditions: ciprofloxacin-resistant, ESBL-expressing clinical isolate 1000-02, overnight incubation, lower of duplicate values; for MIC: Klebsiella pneumoniae, read-out: AB-MBT: Klebsiella pneumoniae 1000-02: MIC (MstRcnt). The method, boiled down:
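MIC by CLSI broth dilution with 2-fold concentration steps and overnight incubation; lowest concentration visibly inhibiting growth versus drug-free control. Ciprofloxacin-resistant, ESBL-expressing clinical isolate 1000-02. Run in duplicate, lower value reported when within 2-fold, with QC organisms and reference compounds per run.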

A word on the MIC: it is the smallest concentration in the dilution series that meets the test's criterion for growth inhibition. With `CC(C)(O/N=C(\C(=O)N[C@@H]1C(=O)N(S(=O)(=O)O)[C@@H]1CNS(=O)(=O)c1ccc(C(=O)NCc2cc(=O)c(O)cn2O)cc1)c1csc(N)n1)C(=O)O` [Example 48, 2-({[(1Z)-1-(2-amino-1,3-thiazol-4-yl)-2-{[(2R,3S)-2-({[(4-{[(1,5-dihydroxy-4-oxo-1,4-dihydropyridin-2-yl)methyl]carbamoyl}phenyl)sulfonyl]amino}methyl)-4-oxo-1-sulfoazetidin-3-yl]amino}-2-oxoethylidene]amino}oxy)-2-methylpropanoic acid], the MIC was 1 µg/mL (≈ 1.29 µM) in experiment [1], 2 µg/mL (≈ 2.59 µM) in experiment [2] and 1 µg/mL (≈ 1.29 µM) in experiment [3].

For the compound `C[C@@H](NC(=O)NCc1cc(=O)c(O)cn1O)C(=O)NC[C@@H]1[C@H](NC(=O)/C(=N\OC(C)(C)C(=O)O)c2csc(N)n2)C(=O)N1S(=O)(=O)O` [Example 49, 2-({[(1Z)-1-(2-amino-1,3-thiazol-4-yl)-2-{[(2R,3S)-2-{[(N-{[(1,5-dihydroxy-4-oxo-1,4-dihydropyridin-2-yl)methyl]carbamoyl}-D-alanyl)amino]methyl}-4-oxo-1-sulfoazetidin-3-yl]amino}-2-oxoethylidene]amino}oxy)-2-methylpropanoic acid], the MIC in experiment [1], in experiment [2] and in experiment [3] was 0.5 µg/mL (≈ 0.711 µM) each time.

With `CC(C)(O/N=C(\C(=O)N[C@@H]1C(=O)N(S(=O)(=O)O)[C@@H]1CNc1cc(C(=O)NCc2cc(=O)c(O)cn2O)ccn1)c1csc(N)n1)C(=O)O` [Example 50, 2-({[(1Z)-1-(2-amino-1,3-thiazol-4-yl)-2-{[(2R,3S)-2-{[(4-{[(1,5-dihydroxy-4-oxo-1,4-dihydropyridin-2-yl)methyl]carbamoyl}pyridin-2-yl)amino]methyl}-4-oxo-1-sulfoazetidin-3-yl]amino}-2-oxoethylidene]amino}oxy)-2-methylpropanoic acid], the results for the MIC in experiment [1], in experiment [2] and in experiment [3] were 0.125 µg/mL (≈ 0.176 µM), 0.5 µg/mL (≈ 0.705 µM) and 0.5 µg/mL (≈ 0.705 µM), respectively.

Turning to `CC(C)(O/N=C(\C(=O)N[C@@H]1C(=O)N(S(=O)(=O)O)[C@@H]1CNC(=O)c1ccc(CNC(=O)c2cc(O)c(O)cn2)cc1)c1csc(N)n1)C(=O)O` [Example 51, 2-({[(1Z)-1-(2-amino-1,3-thiazol-4-yl)-2-{[(2R,3S)-2-({[4-({[(4,5-dihydroxypyridin-2-yl)carbonyl]amino}methyl)benzoyl]amino}methyl)-4-oxo-1-sulfoazetidin-3-yl]amino}-2-oxoethylidene]amino}oxy)-2-methylpropanoic acid], the figures for the MIC in experiment [1], in experiment [2] and in experiment [3] were 0.125 µg/mL (≈ 0.173 µM), 1 µg/mL (≈ 1.39 µM) and 2 µg/mL (≈ 2.78 µM), respectively.

Regarding `CC(C)(O/N=C(\C(=O)N[C@@H]1C(=O)N(S(=O)(=O)O)[C@@H]1CNC(=O)c1ccc(NC(=O)c2cc(=O)c(O)cn2O)cc1)c1csc(N)n1)C(=O)O` [Example 52, 2-({[(1Z)-1-(2-amino-1,3-thiazol-4-yl)-2-{[(2R,3S)-2-{[(4-{[(1,5-dihydroxy-4-oxo-1,4-dihydropyridin-2-yl)carbonyl]amino}benzoyl)amino]methyl}-4-oxo-1-sulfoazetidin-3-yl]amino}-2-oxoethylidene]amino}oxy)-2-methylpropanoic acid], the MIC in experiment [1] stood at 0.5 µg/mL (≈ 0.692 µM); in experiment [2] it was 0.5 µg/mL (≈ 0.692 µM); in experiment [3], 1 µg/mL (≈ 1.38 µM).

Turning to `CC(C)(O/N=C(\C(=O)N[C@@H]1C(=O)N(S(=O)(=O)O)[C@@H]1CNC(=O)CNC(=O)NCc1cc(=O)c(O)cn1O)c1csc(N)n1)C(=O)O` [Example 53, 2-({[(1Z)-1-(2-amino-1,3-thiazol-4-yl)-2-{[(2R,3S)-2-{[(N-{[(1,5-dihydroxy-4-oxo-1,4-dihydropyridin-2-yl)methyl]carbamoyl}glycyl)amino]methyl}-4-oxo-1-sulfoazetidin-3-yl]amino}-2-oxoethylidene]amino}oxy)-2-methylpropanoic acid], the MIC in experiment [1] stood at 0.25 µg/mL (≈ 0.363 µM); in experiment [2], 0.25 µg/mL (≈ 0.363 µM); in experiment [3], 1 µg/mL (≈ 1.45 µM).

Turning to `C[C@H](NC(=O)c1cc(=O)c(O)cn1O)C(=O)NC[C@@H]1[C@H](NC(=O)/C(=N\OC(C)(C)C(=O)O)c2csc(N)n2)C(=O)N1S(=O)(=O)O` [Example 54, 2-({[(1Z)-1-(2-amino-1,3-thiazol-4-yl)-2-({(2R,3S)-2-[({N-[(1,5-dihydroxy-4-oxo-1,4-dihydropyridin-2-yl)carbonyl]-L-alanyl}amino)methyl]-4-oxo-1-sulfoazetidin-3-yl}amino)-2-oxoethylidene]amino}oxy)-2-methylpropanoic acid], the values for the MIC in experiment [1], in experiment [2] and in experiment [3] were 0.25 µg/mL (≈ 0.371 µM), 0.25 µg/mL (≈ 0.371 µM) and 1 µg/mL (≈ 1.48 µM), respectively.

For `C[C@H](NC(=O)NCc1cc(=O)c(O)cn1O)C(=O)NC[C@@H]1[C@H](NC(=O)/C(=N\OC(C)(C)C(=O)O)c2csc(N)n2)C(=O)N1S(=O)(=O)O` [Example 55, 2-({[(1Z)-1-(2-amino-1,3-thiazol-4-yl)-2-{[(2R,3S)-2-{[(N-{[(1,5-dihydroxy-4-oxo-1,4-dihydropyridin-2-yl)methyl]carbamoyl}-L-alanyl)amino]methyl}-4-oxo-1-sulfoazetidin-3-yl]amino}-2-oxoethylidene]amino}oxy)-2-methylpropanoic acid], the MIC is 0.25 µg/mL (≈ 0.355 µM) in experiment [1], 0.5 µg/mL (≈ 0.711 µM) in experiment [2] and 2 µg/mL (≈ 2.84 µM) in experiment [3].

On to `CC(C)(O/N=C(\C(=O)N[C@@H]1C(=O)N(S(=O)(=O)O)[C@@H]1CNC(=O)Cc1cccc(NC(=O)c2cc(=O)c(O)cn2O)c1)c1csc(N)n1)C(=O)O` [Example 56, 2-({[(1Z)-1-(2-amino-1,3-thiazol-4-yl)-2-{[(2R,3S)-2-({[(3-{[(1,5-dihydroxy-4-oxo-1,4-dihydropyridin-2-yl)carbonyl]amino}phenyl)acetyl]amino}methyl)-4-oxo-1-sulfoazetidin-3-yl]amino}-2-oxoethylidene]amino}oxy)-2-methylpropanoic acid], for which the MIC in experiment [1] is 0.5 µg/mL (≈ 0.679 µM); in experiment [2], 1 µg/mL (≈ 1.36 µM); in experiment [3], 1 µg/mL (≈ 1.36 µM).

Consider `CC(C)(O/N=C(\C(=O)N[C@@H]1C(=O)N(S(=O)(=O)O)[C@@H]1CNC(=O)Nc1cc(=O)c(O)c[nH]1)c1csc(N)n1)C(=O)O` [Example 57, 2-({[(1Z)-1-(2-amino-1,3-thiazol-4-yl)-2-{[(2R,3S)-2-({[(5-hydroxy-4-oxo-1,4-dihydropyridin-2-yl)carbamoyl]amino}methyl)-4-oxo-1-sulfoazetidin-3-yl]amino}-2-oxoethylidene]amino}oxy)-2-methylpropanoic acid], for which the MIC in experiment [1] stood at 2 µg/mL (≈ 3.32 µM); in experiment [2] it was 1 µg/mL (≈ 1.66 µM); in experiment [3], 4 µg/mL (≈ 6.64 µM).

In the case of `Nc1nc(/C(=N/OC2(C(=O)O)CCC2)C(=O)N[C@@H]2C(=O)N(S(=O)(=O)O)[C@@H]2CNC(=O)c2cc(=O)c(O)cn2O)cs1` [Example 58, 1-({[(1Z)-1-(2-amino-1,3-thiazol-4-yl)-2-{[(2R,3S)-2-({[(1,5-dihydroxy-4-oxo-1,4-dihydropyridin-2-yl)carbonyl]amino}methyl)-4-oxo-1-sulfoazetidin-3-yl]amino}-2-oxoethylidene]amino}oxy)cyclobutanecarboxylic acid], the MIC in experiment [1] came to 0.25 µg/mL (≈ 0.406 µM); in experiment [2], 0.25 µg/mL (≈ 0.406 µM); in experiment [3], 0.06 µg/mL (≈ 0.0975 µM).

As for `Nc1nc(/C(=N/OC2(C(=O)O)CCC2)C(=O)N[C@@H]2C(=O)N(S(=O)(=O)O)[C@@H]2CNC(=O)c2cccc(S(=O)(=O)NCc3cc(=O)c(O)cn3O)c2)cs1` [Example 59], the “AB-MBT: Pseudomonas aeruginosa 1091-05: MIC (MstRcn)” value in experiment [1] was determined as 0.250 µg/mL. For the same compound, the “AB-MBT: Acinetobacter baumanii AB-3167: MIC (MstRcnt)” value in experiment [2] stood at 0.250 µg/mL. Further, the “AB-MBT: Klebsiella pneumoniae 1000-02: MIC (MstRcnt)” value in experiment [3] was 0.250 µg/mL.

As for `Nc1nc(/C(=N/OC2(C(=O)O)CCC2)C(=O)N[C@@H]2C(=O)N(S(=O)(=O)O)[C@@H]2CNC(=O)CCC(=O)NCc2cc(=O)c(O)cn2O)cs1` [Example 60, 1-({[(1Z)-1-(2-amino-1,3-thiazol-4-yl)-2-{[(2R,3S)-2-{[(4-{[(1,5-dihydroxy-4-oxo-1,4-dihydropyridin-2-yl)methyl]amino}-4-oxobutanoyl)amino]methyl}-4-oxo-1-sulfoazetidin-3-yl]amino}-2-oxoethylidene]amino}oxy)cyclobutanecarboxylic acid], the MIC worked out at 0.125 µg/mL (≈ 0.178 µM) in experiment [1], 0.25 µg/mL (≈ 0.357 µM) in experiment [2] and 0.5 µg/mL (≈ 0.714 µM) in experiment [3].

For `Nc1nc(/C(=N/OC2(C(=O)O)CCC2)C(=O)N[C@@H]2C(=O)N(S(=O)(=O)O)[C@@H]2CNC(=O)c2ccc(CNC(=O)c3cc(O)c(O)cn3)cc2)cs1` [Example 61, 1-({[(1Z)-1-(2-amino-1,3-thiazol-4-yl)-2-{[(2R,3S)-2-({[4-({[(4,5-dihydroxypyridin-2-yl)carbonyl]amino}methyl)benzoyl]amino}methyl)-4-oxo-1-sulfoazetidin-3-yl]amino}-2-oxoethylidene]amino}oxy)cyclobutanecarboxylic acid], the MIC in experiment [1] turned out to be 32 µg/mL (≈ 43.7 µM); in experiment [2] it was 1 µg/mL (≈ 1.36 µM); in experiment [3], 2 µg/mL (≈ 2.73 µM).
